Results reported in the supplement of paper PMC11281043.

Experiments:
Settings in all cases: exposure: 6-8 hpf to 5 dpf, scored at 6 dpf
Danio rerio embryo/larva [1] = experiment: max % larvae with any abnormality across tested concentrations; max tested concentration (log10 uM): 2; higher = more toxic; extreme values may be limits of the assay
Danio rerio embryo/larva [2] = experiment: max % larvae dead across tested concentrations; max tested concentration (log10 uM): 2; higher = more toxic; extreme values may be limits of the assay
Danio rerio embryo/larva [3] = experiment: max % larvae unhatched across tested concentrations; max tested concentration (log10 uM): 2; higher = more toxic

| SMILES | max % larvae (Danio rerio embryo/larva [1]) [%] | max % larvae dead across tested concentrations (Danio rerio embryo/larva [2]) [%] | max % larvae unhatched across tested concentrations (Danio rerio embryo/larva [3]) [%] |
| --- | --- | --- | --- |
| O=C(O)CCC(F)(C(F)(F)F)C(F)(F)F [4,4-bis(Trifluoromethyl)-4-fluoropropanoic acid] | 16.7 | 16.7 | 0 |
| OCCC(F)(F)C(F)(F)C(F)(F)C(F)(F)F [4:2 Fluorotelomer alcohol] | 4.17 | 0 | 0 |
| O=S(=O)(O)CCC(F)(F)C(F)(F)C(F)(F)C(F)(F)F [4:2 Fluorotelomer sulfonic acid] | 0 | 0 | 0 |
| O=C(O)C(F)(F)C(F)(F)C(F)F [4H-Perfluorobutanoic acid] | 0 | 0 | 0 |
| O=P(O)(O)OCCC(F)(F)C(F)(F)C(F)(F)C(F)(F)C(F)(F)C(F)(F)F [6:2 Fluorotelomer phosphate monoester] | 0 | 0 | 0 |
| O=S(=O)(O)CCC(F)(F)C(F)(F)C(F)(F)C(F)(F)C(F)(F)C(F)(F)F [6:2 Fluorotelomer sulfonic acid] | 16.7 | 16.7 | 0 |
| O=S(=O)(O)CCC(F)(F)C(F)(F)C(F)(F)C(F)(F)C(F)(F)C(F)(F)C(F)(F)C(F)(F)F [8:2 Fluorotelomer sulfonic acid] | 0 | 0 | 0 |
| O=C(O)C(F)(F)C(F)(F)C(F)(F)C(F)(F)C(F)(F)C(F)(F)C(F)F [8H-Perfluorooctanoic acid] | 16.7 | 0 | 0 |
| O=C(O)C(F)(F)C(F)(F)C(F)(F)C(F)(F)C(F)(F)C(F)(F)C(F)(F)C(F)F [9H-Perfluorononanoic acid] | 18.8 | 0 | 0 |
| C=C(C)C(=O)OCCC(F)(F)C(F)(F)C(F)(F)C(F)(F)C(F)(C(F)(F)F)C(F)(F)F [(Perfluoro-5-methylhexyl)ethyl 2-methylprop-2-enoate] | 0 | 0 | 0 |
| C=C(C)C(=O)OCC(F)(F)C(F)(F)C(F)(F)F [(Perfluoropropyl)methyl methacrylate] | 8.33 | 0 | 0 |
| FC(F)(F)C(F)(F)CNCC(F)(F)C(F)(F)F [Bis(1H,1H-perfluoropropyl)amine] | 16.7 | 0 | 0 |
| CCOC(=O)CC(=O)C(F)(F)C(F)(F)F [Ethyl pentafluoropropionyl acetate] | 0 | 0 | 0 |
| FC(F)(F)C(F)(F)C(F)(F)CI [Heptafluorobutyl iodide] | 0 | 0 | 0 |
| NC(=O)C(F)(F)C(F)(F)C(F)(F)F [Heptafluorobutyramide] | 25 | 16.7 | 0 |
| OCC(F)(F)C(F)(F)C(F)(F)CO [Hexafluoroamylene glycol] | 0 | 0 | 0 |
| O=C(Cl)C(F)(F)C(F)(F)C(F)(F)C(=O)Cl [Hexafluoroglutaryl chloride] | 0 | 0 | 0 |
| COC(=O)C(F)(F)C(F)(F)C(F)(F)C(F)(F)C(F)(F)F [Methyl perfluorohexanoate] | 0 | 0 | 0 |
| CCN(CCO)S(=O)(=O)C(F)(F)C(F)(F)C(F)(F)C(F)(F)C(F)(F)C(F)(F)C(F)(F)C(F)(F)F [N-Ethyl-N-(2-hydroxyethyl)perfluorooctane sulfonamide] | 12.5 | 0 | 0 |
| CN(C(=O)C(F)(F)C(F)(F)C(F)(F)F)[Si](C)(C)C [N-Methyl-N-trimethylsilylheptafluorobutyramide] | 0 | 0 | 0 |
| NC(=O)C(F)(F)C(F)(F)C(F)(F)C(F)(F)F [Nonafluoropentanamide] | 0 | 0 | 0 |
| NC(=O)C(F)(F)C(F)(F)C(F)(F)C(F)(F)C(N)=O [Octafluoroadipamide] | 0 | 0 | 0 |

| SMILES | max % larvae (Danio rerio embryo/larva [1]) [%] | max % larvae dead across tested concentrations (Danio rerio embryo/larva [2]) [%] | max % larvae unhatched across tested concentrations (Danio rerio embryo/larva [3]) [%] |
| --- | --- | --- | --- |
| O=C(Cl)C(F)(F)C(F)(F)C(F)(F)C(F)(F)C(F)(F)C(F)(F)C(F)(F)F [Pentadecafluorooctanoyl chloride] | 16.7 | 0 | 0 |
| NC(=O)C(F)(F)C(F)(F)F [Pentafluoropropionamide] | 0 | 0 | 0 |
| O=C(O)C(F)(F)C(F)(F)C(F)(F)OC(F)(F)F [Perfluoro(4-methoxybutanoic acid)] | 0 | 0 | 0 |
| FC(F)(F)C(F)(F)C(F)(F)C(F)(F)C(F)(F)C(F)(F)I [Perfluoro-1-iodohexane] | 0 | 0 | 0 |
| O=S(=O)(O)C(F)(F)C(F)(F)OC(F)(F)C(F)(F)F [Perfluoro-2-ethoxyethanesulfonic acid] | 16.7 | 0 | 0 |
| O=C(O)C(F)(F)OC(F)(F)C(F)(F)OC(F)(F)C(F)(F)OC(F)(F)F [Perfluoro-3,6,9-trioxadecanoic acid] | 100 | 16.7 | 0 |
| O=C(O)C(F)(F)OC(F)(F)C(F)(F)OC(F)(F)F [Perfluoro-3,6-dioxaheptanoic acid] | 4.17 | 0 | 0 |
| O=C(O)C(F)(F)OC(F)(F)C(F)(F)OC(F)(F)C(=O)O [Perfluoro-3,6-dioxaoctane-1,8-dioic acid] | 0 | 0 | 0 |
| O=C(O)C(F)(F)C(F)(F)OC(F)(F)F [Perfluoro-3-methoxypropanoic acid] | 16.7 | 0 | 0 |
| O=C(O)C(F)(F)C(F)(F)C(F)(F)OC(F)(C(F)(F)F)C(F)(F)F [Perfluoro-4-isopropoxybutanoic acid] | 0 | 0 | 0 |
| O=C(O)C(F)(F)C(F)(F)C(=O)O [Perfluorobutanedioic acid] | 16.7 | 16.7 | 0 |
| O=S(=O)(O)C(F)(F)C(F)(F)C(F)(F)C(F)(F)F [Perfluorobutanesulfonic acid] | 0 | 0 | 0 |
| O=C(O)C(F)(F)C(F)(F)C(F)(F)F [Perfluorobutanoic acid] | 20 | 0 | 0 |
| O=C(Cl)C(F)(F)C(F)(F)C(F)(F)C(F)(F)C(F)(F)C(F)(F)F [Perfluoroheptanoyl chloride] | 16.7 | 0 | 0 |
| O=C(O)C(F)(F)C(F)(F)C(F)(F)C(F)(F)C(=O)O [Perfluorohexanedioic acid] | 0 | 0 | 0 |
| O=C(O)C(F)(F)C(F)(F)C(F)(F)C(F)(F)C(F)(F)F [Perfluorohexanoic acid] | 0 | 0 | 0 |
| NC(=O)C(F)(F)C(F)(F)C(F)(F)C(F)(F)C(F)(F)C(F)(F)C(F)(F)F [Perfluorooctanamide] | 0 | 0 | 0 |
| NC(=O)C(F)(F)C(F)(F)C(F)(F)C(F)F [Perfluoropentanamide] | 0 | 0 | 0 |
| O=C(O)C(F)(F)C(F)(F)C(F)(F)C(=O)O [Perfluoropentanedioic acid] | 0 | 0 | 0 |
| O=C(O)C(F)(F)C(F)(F)C(F)(F)C(F)(F)F [Perfluoropentanoic acid] | 25 | 0 | 0 |
| O=C(O)C(F)(F)C(F)(F)F [Perfluoropropanoic acid] | 0 | 0 | 0 |
| O=S(=O)(O)C(F)(F)C(F)(F)C(F)(F)C(F)(F)F [Potassium perfluorobutanesulfonate] | 8.33 | 0 | 0 |
